Series [1] in a line: Solubility in water. Type of series: physicochemical.
A short description of series [2]: Half life in monkey plasma. Type of series: ADME, cell-free. Particulars: cercopithecidae.
Series [3] in a line: Half life in monkey plasma; Not detected. The class given is ADME, cell-free. The conditions noted are these: cercopithecidae.
A short description of series [4]: (§1) Half life in rat plasma. Particulars: plasma. The class given is ADME.
The species entered for series [5] is Rattus norvegicus. As to the kind of experiment: Half life in rat plasma; Not detected. The class given is ADME.
The nature of series [6]: Half life in human plasma. Type of series: ADME, cell-free.
Series [7] is described as follows: Half life in human plasma; Not detected. Type of series: ADME, cell-free.
The subject of series [8] is Rattus norvegicus. Put plainly: Efficacy against […] CY1003 on day 14th after intravenous administration in rat. Type of series: functional.
The test system of series [9] is Rattus norvegicus. As to the kind of experiment: Efficacy against […] CY1003 on day 14th after peroral administration in rat. The class given is functional. The conditions noted are these: po.
Series [10] relates to Rattus norvegicus. Put plainly: Efficacy against Candida albicans CY1002 on day 14th after peroral administration in rat. The conditions noted are these: po. Type of series: functional.
Series [11] relates to Rattus norvegicus. As to the kind of experiment: Efficacy against Candida albicans CY3003 on day 14th after intravenous administration in rat. The class given is functional.
Series [12] has as its system Rattus norvegicus. As to the kind of experiment: Efficacy against Candida albicans CY3003 on day 14th after peroral administration in rat. Type of series: functional. The conditions noted are these: po.
Series [13] relates to Rattus norvegicus. As to the kind of experiment: Efficacy against Candida tropicalis CY5042 on day 14th after intravenous administration in rat. Type of series: functional.
The subject of series [14] is Rattus norvegicus. As to the kind of experiment: Efficacy against […] CF924390 on day 14th after intravenous administration in rat. The class given is functional.
For series [15], the system named is Rattus norvegicus. Put plainly: Efficacy against […] CF924390 on day 14th after peroral administration in rat. The class given is functional.
The test system of series [16] is Rattus norvegicus. As to the kind of experiment: Efficacy against Candida tropicalis CY5042 on day 14th after peroral administration in rat. Type of series: functional. Particulars: po.
Series [17] has as its system Rattus norvegicus. As to the kind of experiment: Efficacy against Candida albicans CY1002 on day 14th after intravenous administration in rat. Type of series: functional.
Series [18] is filed under the species Rattus norvegicus. The description is as §1. Type of series: ADME.

The source of these data is ChEMBL document CHEMBL1136258, “Design, synthesis and antifungal activity of a novel water soluble prodrug of antifungal triazole” (Bioorg Med Chem Lett, 2003).

In general, solubility refers to the concentration that dissolves in the medium under given conditions. Broadly, the half-life is how long it takes for the measured level to halve.

Molecules are shown by their SMILES. Where “and” joins values, the source holds several entries; their conditions need not be identical. Equal values may be shown once.

Compound `CNCC(=O)OCc1cc(F)ccc1N(C)C(=O)OC(C)[n+]1cnn(C[C@](O)(c2cc(F)ccc2F)[C@@H](C)c2nc(-c3ccc(C#N)cc3)cs2)c1.[Cl-]` (stereo partly drawn) registered a solubility in [1] of more than 10000 µg/mL.

`CNCC(=O)OCc1cccnc1N(C)C(=O)OC(C)[n+]1cnn(C[C@](O)(c2cc(F)ccc2F)[C@@H](C)c2nc(-c3ccc(C#N)cc3)cs2)c1.[Cl-]` (stereo partly drawn): the half-life in series [2], in series [4] and in series [6] was less than 1 min in each case. In addition, the T1/2 entry (in [3]; in the series listed under Rattus norvegicus [5]; in [7]) was “Not detected” in each case. This compound also registered a solubility in series [1] of more than 100000 µg/mL. The ED50 in the series on Rattus norvegicus [8] was found to be 12 µmol/kg; in the series with Rattus norvegicus [9], 14 µmol/kg; in the series with Rattus norvegicus [10], 4 µmol/kg; with Rattus norvegicus [11] it was 1.5 µmol/kg; in the series on Rattus norvegicus [12] it was 2.6 µmol/kg; in the series on Rattus norvegicus [13], 0.9 µmol/kg. Further, the ED50 in the series on Rattus norvegicus [14] is 6.8 µM/kg; in the series on Rattus norvegicus [14] (Rattus norvegicus, iv, read-out: ED50) it was 6 µmol/kg; with Rattus norvegicus [15], 8.9 µM/kg; in the series on Rattus norvegicus [15] (Rattus norvegicus, po, read-out: ED50), 9.9 µmol/kg; in the series with Rattus norvegicus [16], 0.8 µmol/kg; in the series with Rattus norvegicus [17], 4 µmol/kg.

In the case of `CC(=O)OCc1ccccc1N(C)C(=O)OC[n+]1cnn(C[C@](O)(c2cc(F)ccc2F)[C@@H](C)c2nc(-c3ccc(C#N)cc3)cs2)c1.[Cl-]`, the concentration in solution in [1] (solubility) was 1000 µg/mL.

`CC(=O)OCCCN(C)C(=O)OC[n+]1cnn(C[C@](O)(c2cc(F)ccc2F)[C@@H](C)c2nc(-c3ccc(C#N)cc3)cs2)c1.[I-]` showed a solubility in [1] of less than 1000 µg/mL.

For the compound `C[C@@H](c1nc(-c2ccc(C#N)cc2)cs1)[C@](O)(Cn1c[n+](COC(=O)N(C)c2ccccc2)cn1)c1cc(F)ccc1F.[Cl-]`, in series [4], the half-life was 1740 min. This compound also came in with a solubility in [1] of less than 1000 µg/mL.

Take `CNCC(=O)OCc1cc(F)c(F)cc1N(C)C(=O)OC(C)[n+]1cnn(C[C@](O)(c2cc(F)ccc2F)[C@@H](C)c2nc(-c3ccc(C#N)cc3)cs2)c1.[Cl-]` (stereo partly drawn): the half-life in [2] and in series [6] was 6 min throughout. In addition, the T1/2 in the series filed under Rattus norvegicus [18] is < 2 min and 5 min; in series [6] it was 8 min. The same compound came in with a solubility in series [1] of more than 10000 µg/mL.

`CC(=O)OC[C@@H]1CCCN1C(=O)OC[n+]1cnn(C[C@](O)(c2cc(F)ccc2F)[C@@H](C)c2nc(-c3ccc(C#N)cc3)cs2)c1.[I-]` displayed a solubility in series [1] of less than 1000 µg/mL.

Compound `CC(=O)OCCN(C)C(=O)OC[n+]1cnn(C[C@](O)(c2cc(F)ccc2F)[C@@H](C)c2nc(-c3ccc(C#N)cc3)cs2)c1.[I-]` returned a solubility in [1] of less than 1000 µg/mL.

Regarding `CNCC(=O)OCc1c(F)cccc1N(C)C(=O)OC(C)[n+]1cnn(C[C@](O)(c2cc(F)ccc2F)[C@@H](C)c2nc(-c3ccc(C#N)cc3)cs2)c1.[Cl-]` (stereo partly drawn), the T1/2 (in [2]; in the series listed under Rattus norvegicus [18]) was 3 min each time. For the same compound, the half-life in [2] is 2 min; in series [4], less than 2 min; in series [6] it was 2 min. The compound also showed a solubility in series [1] of more than 10000 µg/mL.

For `CNCC(=O)OCc1ccc(Cl)cc1N(C)C(=O)OC(C)[n+]1cnn(C[C@](O)(c2cc(F)ccc2F)[C@@H](C)c2nc(-c3ccc(C#N)cc3)cs2)c1.[Cl-]` (stereo partly drawn), the T1/2 in series [2] is 2 min and 5 min; in the series listed under Rattus norvegicus [18], 4 min; in series [6], 4 min. The half-life in series [4] was less than 2 min; in [6], 3 min. In addition, the solubility in series [1] is more than 10000 µg/mL.

Take `CCC(C)n1ncn(-c2ccc(N3CCN(c4ccc(OCC5COC(Cn6cncn6)(c6ccc(Cl)cc6Cl)O5)cc4)CC3)cc2)c1=O` (stereo not drawn) [ITRACONAZOLE]: the ED50 in the series on Rattus norvegicus [9] is 8.9 µmol/kg; with Rattus norvegicus [10], 4.7 µmol/kg; in the series with Rattus norvegicus [12] it was 1.7 µmol/kg; in the series on Rattus norvegicus [15] it was 7.2 µM/kg and 2.5 µM/kg; with Rattus norvegicus [16], 1.7 µmol/kg.
